This is an account of results in patent US11230542B2, “Inhibitors of integrated stress response pathway” (Praxis Biotech LLC, priority 2017, dated 2022).

The subject of one assay is CHO cells. Description: Protein translation assay (puromycin incorporation in CHO cells, unstressed or Tg-stressed). The assay is classed as cell-based, Chinese hamster. The settings on record: for activity at 0.1 µM / activity at 1 µM: Cricetulus griseus, media alone 100%; for activity at 0.1 µM: read-out: % Recovery of protein expression (100 nM test compound); for protein translation: summary of Table 3; for protein synthesis in a cell versus ATF4 translation: under ISR-stressed or non-ISR stressed conditions. As to the method: CHO cells were maintained at 37° C. and 5% CO2 in DMEM supplemented with 10% fetal bovine serum (FBS), 2 mM L-glutamine, 100 U/ml penicillin, and 100 μg/ml streptomycin. After reaching 80% of confluence, cells were detached and seeded on 6 well plates in complete media, allowed to recover overnight and treated for 2 hours with 1 μM of the test compound (to assess protein synthesis levels in unstressed condition), or for 1 hour with 100 nM and 1 μM of the test compound and then co-treated with 300 nM Tg and 100 nM and 1 μM of the test compound (to assess the recovery of protein synthesis in a stressed condition). Cells treated with Tg alone were used as controls.
After the 2 hours treatments, media were replaced by adding 10 μg/ml puromycin (Sigma Aldrich) in complete media for 30 min. Media were removed and cells were lysed with SDS-PAGE lysis buffer. Lysates were transferred to 1.5 ml tubes and sonicated for 3 minutes and total protein amount were quantified using BCA Protein Assay Kit (Pierce). Equal amount of protein (30 μg) was loaded on SDS-PAGE gels. Proteins were transferred onto 0.2 μm PVDF membranes (BioRad) and probed with primary antibodies diluted in Tris-buffered saline supplemented with 0.1% Tween 20 and 3% bovine serum albumin.
Puromycin (12D10) antibody was used as primary antibody (Merck Millipore). A HRP-conjugated secondary antibody (Rockland) was employed to detect immune-reactive bands using enhanced chemiluminescence (ECL Western Blotting Substrate, Pierce). Quantification of protein bands was done by densitometry using ImageJ.
Percent increase of protein synthesis in unstressed cells (without Tg treatment) in the presence of media alone or certain test compounds is shown in Table 3 and FIG. 2. The percentage levels were normalized to the media alone condition, which correspond to 100% protein synthesis.
Percent recovery of protein synthesis in stressed cells (with Tg treatment) due to the test compounds at 100 nM or 1 μM is shown in FIGS. 3A and 3B, respectively, and in Table 3. The levels were normalized to the media alone and to Tg alone conditions, which correspond to 100% and 0% respectively.

For a further assay, the system named is ATF4. Description: ATF4 expression inhibition assay (thapsigargin-stressed HEK293T cells, western blot). It is filed as cell-based. Conditions: Homo sapiens, HEK-293T; for IC50: 3 h with 100 nM Tg, test compound 1 nM to 1 μM; for inhibition at 0.1 µM: 3 h with 100 nM thapsigargin (Tg) and 100 nM test compound; for inhibition at 0.1 µM / inhibition at 1 µM: Tg alone 0%, untreated 100%; for inhibition at 1 µM: 3 h with 100 nM thapsigargin (Tg) and 1 μM test compound. As to the method: HEK293T cells were maintained at 37° C. and 5% CO2 in Dulbecco's Modified Eagle's Media (DMEM) supplemented with 10% fetal bovine serum (FBS), 2 mM L-glutamine, 100 U/ml penicillin, and 100 μg/ml streptomycin. […] Cells without treatment or cells treated with Tg alone were used as controls.
After 3 hours of treatment with Tg and the test compound, cells were lysed with SDS-PAGE lysis buffer. Lysates were transferred to 1.5 ml tubes and sonicated for 3 min, and total protein amounts were quantified using BCA Protein Assay Kit (Pierce). Equal amount of proteins were loaded on SDS-PAGE gels. Proteins were transferred onto 0.2 μm PVDF membranes (BioRad) and probed with primary antibodies diluted in Tris-buffered saline supplemented with 0.1% Tween 20 and 3% bovine serum albumin.
ATF4 (11815) antibody was used as primary antibody (Cell Signaling Technologies). A horseradish peroxidase (HRP)-conjugated secondary antibody (Rockland) was employed to detect immune-reactive bands using enhanced chemiluminescence (ECL Western Blotting Substrate, Pierce). Quantification of protein bands was done by densitometry using ImageJ.
Percentages of ATF4 inhibition after induction with Tg in the presence of 100 nM or 1 μM of certain test compounds are shown in Table 2 and FIG. 1. Percentage of ATF4 inhibition was calculated as the percent reduction normalized to Tg treatment (0% inhibition) and untreated cells (100% inhibition). Also shown in Table 2 is the calculated IC50 for the test compounds. […] Accordingly, inhibition of ATF4 expression as a result of the test compound indicates suppression of the ISR pathway.

[1] abbreviates: CHO cells stressed with 300 nM Tg, Tg alone 0%.
The mark [2] stands for this setting: CHO cells stressed with 300 nM Tg, Tg alone 0%, read-out: % Recovery of protein expression (1 μM test compound).
Setting [3] is: unstressed CHO cells, 2 h, read-out: % Protein expression relative to untreated (1 μM test compound).

Read-outs that look alike come from different tables or passages of the source.

On to `O=C(COc1ccc(Cl)c(F)c1)NC1CCN(CC(O)COc2ccc(Cl)c(F)c2)CC1` (single isomer, unassigned; (-)) [Compound 26, (−)-2-(4-chloro-3-fluorophenoxy)-N-(1-(3-(4-chloro-3-fluorophenoxy)-2-hydroxypropyl)piperidin-4-yl)acetamide], for which the activity at 0.1 µM with CHO cells (setting [1]) came out at 34.2%. Moreover, the activity at 1 µM in the assay with CHO cells (setting [2]) came to 176%. Moreover, in the assay on CHO cells (setting [3]), the activity at 1 µM came out at 112%. Also, in the assay with ATF4, the IC50 was 27 nM, testing at 0.1 µM gave an inhibition of 91% and the inhibition at 1 µM came out at 97%.
Consider `O=C(COc1ccc(Cl)cc1)NC1CCN(CC(O)COc2ccc(Cl)cc2)CC1` (single isomer, unassigned; (-)) [Compound 15, (−)-2-(4-chlorophenoxy)-N-(1-(3-(4-chlorophenoxy)-2-hydroxypropyl)piperidin-4-yl)acetamide], for which the activity at 0.1 µM in the assay on CHO cells (setting [1]) was 35.6%. Further, the activity at 1 µM in the assay with CHO cells (setting [2]) amounted to 159%. The activity at 1 µM with CHO cells (setting [3]) stood at 68.3%. Moreover, in the assay with ATF4, inhibition was half-maximal at 52.1 nM (IC50), testing at 0.1 µM gave an inhibition of 77% and testing at 1 µM gave an inhibition of 99%.
In the case of `O=C(N[C@H]1CC[C@H](NC[C@@H](O)COc2ccc(Cl)c(F)c2)CC1)c1cc2cc(Cl)ccc2o1` (single isomer, unassigned) [Compound 154, (+)-trans-5-chloro-N-(4-((3-(4-chloro-3-fluorophenoxy)-2-hydroxypropyl)amino)cyclohexyl)benzofuran-2-carboxamide], the activity at 0.1 µM in the assay on CHO cells (setting [1]) amounted to 96.3%. For the same compound, in the assay on CHO cells (setting [2]), the activity at 1 µM worked out at 234%. Moreover, in the assay with CHO cells (setting [3]), the activity at 1 µM is 188%. In the assay with ATF4, this compound came in with an IC50 of 13.7 nM, an inhibition at 0.1 µM of 92% and an inhibition at 1 µM of 96%.
`O=C(NC1CCN(C[C@H](O)COc2ccc(Cl)c(F)c2)CC1)c1cc2cc(Cl)ccc2o1` (single isomer, unassigned) [Compound 149, (+)-5-chloro-N-(1-(3-(4-chloro-3-fluorophenoxy)-2-hydroxypropyl)piperidin-4-yl)benzofuran-2-carboxamide]: the activity at 0.1 µM with CHO cells (setting [1]) came to 107%. Also, the activity at 1 µM in the assay on CHO cells (setting [2]) came out at 281%. Moreover, the activity at 1 µM in the assay with CHO cells (setting [3]) was found to be 138%. Besides, in the assay on ATF4, the midpoint of inhibition, the IC50, lay at 29.9 nM; the inhibition at 0.1 µM was 62%; the inhibition at 1 µM stood at 96%.
Consider `O=C(COc1ccc(Cl)cc1)N[C@H]1CC[C@H](NC(=O)C2CNc3cc(Cl)ccc3O2)CC1` (single isomer, unassigned; (-)) [Compound 157, (−)-trans-6-chloro-N-(4-(2-(4-chlorophenoxy)acetamido)cyclohexyl)-3,4-dihydro-2H-benzo[b][1,4]oxazine-2-carboxamide], for which the activity at 0.1 µM in the assay on CHO cells (setting [1]) stood at 39.7%. Besides, the activity at 1 µM with CHO cells (setting [2]) was 97.3%. The activity at 1 µM in the assay with CHO cells (setting [3]) is 118%. In the assay with ATF4, this compound returned an IC50 of 23.8 nM, an inhibition at 0.1 µM of 96% and an inhibition at 1 µM of 100%.
As for `O=C(N[C@H]1CC[C@H](NCC(O)COc2ccc(Cl)c(F)c2)CC1)c1ccc2cc(Cl)ccc2n1` (stereo partly drawn) [Compound 30, trans-6-chloro-N-(4-((3-(4-chloro-3-fluorophenoxy)-2-hydroxypropyl)amino)cyclohexyl)quinoline-2-carboxamide], in the assay on CHO cells (setting [1]), the activity at 0.1 µM is 23.1%. Also, in the assay with CHO cells (setting [2]), the activity at 1 µM is 182%. In addition, the activity at 1 µM with CHO cells (setting [3]) was found to be 206%. Further, in the assay with CHO cells, the protein translation result was “increased protein translation” and the “protein synthesis in a cell versus ATF4 translation” value is reported as “increase protein synthesis in a cell without full inhibition of ATF4 translation”. Further, in the assay with ATF4, the IC50 was above 3000 nM, the inhibition at 0.1 µM is 35% and the inhibition at 1 µM was 35%.
With `O=C(COc1ccc(Cl)c(F)c1)N[C@H]1CC[C@H](NC(=O)c2ccc3cc(Cl)ccc3n2)CC1` [Compound 23, trans-6-chloro-N-(4-(2-(4-chloro-3-fluorophenoxy)acetamido)cyclohexyl)quinoline-2-carboxamide], in the assay with CHO cells (setting [1]), the activity at 0.1 µM came out at 79.2%. Moreover, in the assay on CHO cells (setting [2]), the activity at 1 µM was 176%. Further, in the assay on CHO cells (setting [3]), the activity at 1 µM was found to be 120%. In the assay with ATF4, the half-maximal inhibitory concentration (IC50) came out at 2.1 nM, the inhibition at 0.1 µM was 97% and the inhibition at 1 µM was found to be 99%.
Regarding `O=C(COc1ccc(Cl)cc1)N[C@H]1CC[C@H](NC(=O)C2CNc3cc(Cl)ccc3O2)CC1` (stereo partly drawn) [Compound 156, trans-6-chloro-N-(4-(2-(4-chlorophenoxy)acetamido)cyclohexyl)-3,4-dihydro-2H-benzo[b][1,4]oxazine-2-carboxamide], the activity at 0.1 µM in the assay on CHO cells (setting [1]) was 25.1%. For the same compound, in the assay with CHO cells (setting [2]), the activity at 1 µM came to 200%. The activity at 1 µM with CHO cells (setting [3]) came out at 197%. For the same compound, in the assay on ATF4, the IC50 came to 16 nM, the inhibition at 0.1 µM was found to be 94% and at 1 µM the inhibition was 97%.
Regarding `O=C(N[C@H]1CC[C@H](NCCOc2ccc(Cl)c(F)c2)CC1)c1cc2cc(Cl)ccc2o1` [Compound 32, trans-5-chloro-N-(4-((2-(4-chloro-3-fluorophenoxy)ethyl)amino)cyclohexyl)benzofuran-2-carboxamide], the activity at 0.1 µM in the assay with CHO cells (setting [1]) was 37.7%. Moreover, the activity at 1 µM with CHO cells (setting [2]) turned out to be 234%. Further, the activity at 1 µM in the assay on CHO cells (setting [3]) came to 137%. In the assay with ATF4, this compound gave an inhibition at 0.1 µM of 38% and an inhibition at 1 µM of 78%.
As to `O=C(COc1ccc(Cl)cc1)NC1CCN(CC(O)COc2ccc(Cl)cc2)CC1` (centres unmarked) [Compound 5, 2-(4-chlorophenoxy)-N-(1-(3-(4-chlorophenoxy)-2-hydroxypropyl)piperidin-4-yl)acetamide], in the assay with CHO cells (setting [1]), the activity at 0.1 µM was 64.9%. Further, in the assay with CHO cells (setting [2]), the activity at 1 µM came out at 189%. The activity at 1 µM in the assay on CHO cells (setting [3]) is 130%. In the assay on ATF4, the IC50 was found to be 170 nM, the inhibition at 0.1 µM worked out at 42% and the inhibition at 1 µM stood at 94%.
Consider `O=C(NC1CCN(C[C@@H](O)COc2ccc(Cl)c(F)c2)CC1)c1cc2cc(Cl)ccc2o1` (single isomer, unassigned) [Compound 150, (−)-5-chloro-N-(1-(3-(4-chloro-3-fluorophenoxy)-2-hydroxypropyl)piperidin-4-yl)benzofuran-2-carboxamide], for which, in the assay on CHO cells (setting [1]), the activity at 0.1 µM came to 61%. In the assay with CHO cells (setting [2]), the activity at 1 µM came to 200%. For the same compound, the activity at 1 µM in the assay with CHO cells (setting [3]) came to 184%. In the assay with CHO cells, the protein translation result is recorded as “increased protein translation” and the “protein synthesis in a cell versus ATF4 translation” value is on record as “increase protein synthesis in a cell without full inhibition of ATF4 translation”. Besides, in the assay on ATF4, at 0.1 µM the inhibition was 0% and 1 µM produced 43% inhibition.
As for `O=C(COc1ccc(Cl)c(F)c1)N[C@H]1CC[C@H](NCC(O)COc2ccc(Cl)c(F)c2)CC1` (stereo partly drawn) [Compound 2, trans-2-(4-chloro-3-fluorophenoxy)-N-(4-((3-(4-chloro-3-fluorophenoxy)-2-hydroxypropyl)amino)cyclohexyl)acetamide], in the assay with CHO cells (setting [1]), the activity at 0.1 µM turned out to be 42.5%. For the same compound, the activity at 1 µM in the assay with CHO cells (setting [2]) stood at 135%. In addition, the activity at 1 µM in the assay with CHO cells (setting [3]) was 136%. In the assay with ATF4, this compound came in with an IC50 of 163 nM, an inhibition at 0.1 µM of 40% and an inhibition at 1 µM of 56%.
